Where two headings read alike, the source gives them in different places.
Tests used:
[1] = system: PINK1wt mice; experiment: Induced myocardial infarction model; type: in vivo; details: two weeks dosing
Description: Utilizing mice dosed with kinetin, adenine or vehicle for two weeks, we induced myocardial infarction by ligating the left anterior descending artery at the level of the left atrial appendage (Wang et al., 2006) or sham surgery. Following infarct for 24 or 72 hours, we sacrificed the mice and analyzed the heart by TUNEL staining as cardiomyocytes are susceptible to cell death following infarct. […] These experiments replicate our results in neurons in which kinetin treatment will block apoptosis in response to a number of cellular stressors.

[2] = system: HeLa cells; experiment: Parkin recruitment to depolarized mitochondria in HeLa cells, PINK1 form not stated; type: cell-based
Description: Parkin phosphorylation and mitochondrial translocation assay: HeLa cells were grown in DMEM supplemented with 10% FBS. Log phase cells were plated in 24 well plates with glass coverslips (Mattek) pretreated with fibronectin. Cells were pretreated with 50 μM of the indicated compound, followed by transfection with MitoGFP, mCherry Parkin, and full length PINK1FLAG3 in a 1:4:2 ratio using Fugene 6 (Promega). Fields of cells were selected by expression of MitoGFP (6 fields/well-3 wells/condition) and imaged at five-minute intervals following depolarization with 5 μM CCCP. Quantification was performed according to published protocols^3 and by creation of a Matlab based script.
Our ability to enhance PINK1 activity in-vitro using KTP led us to investigate means by which to achieve enhanced activity in cells expressing PINK1. […] We treated cells with either kinetin or adenine (FIG. 2A) and measured Parkin localization following mitochondrial depolarization with CCCP (FIG. 2B). HeLa cells, which have low levels of endogenous PINK1 and PARKIN, were transfected with wildtype or PINK1^G309D, mCherryParkin, and mitoGFP. After 48 hours of incubation with 25 μM adenine, kinetin or equivalent DMSO, we imaged CCCP-mediated depolarization of mitochondria (FIGS. 2C, 2D) and calculated the percentage of GFP labelled mitochondria with mCherryParkin associated (FIG. 2E). […]

[3] = system: PINK1wt HL-1 cells or cardiomyocytes derived from PINK1wt mice; experiment: Apoptosis of cardiomyocytes after mitochondrial toxins (caspase 3/7, TUNEL, Annexin V); type: cell-based; details: 25 μM, versus control compounds or PINK1 knockdown or −/− cells
Description: (§1) Kinetin mediated PINK1 activity amplification was characterized using a variety of cell lines and primary cells. The HL-1 cell line, an established cardiomyocyte cell line that retains characteristic properties of differentiated cardiac tissue (Claycomb et al., 1998) as well as freshly isolated cardiomyocytes from PINK1wt or PINK1−/− mice. Infected HL-1 cells with a lentivirus expressing shRNA targeting PINK1, were developed to generate a PINK1 knockdown control. To analyze the amplification of PINK1 kinase activity we analyzed the phosphorylation level of Bcl-xL, Mfn2, and Parkin following treatment of PINK1wt and PINK1 knockdown or −/− cell lines with DMSO or 25 μM adenine, kinetin or 9-methyl kinetin (9MK negative control) and fCCCP for three to twenty-four hours following published protocols (Arena et al., 2013; Chen and Dorn, 2013; Kondapalli et al., 2012). […] Accordingly, PINK1wt expressing cells see an increase in PINK1 dependent phosphorylation, but not in those cells where PINK1 has been depleted.
The amount of early apoptosis was measured using caspase 3/7 cleavage activity and later stage apoptosis by measuring the number of Terminal deoxynucleotidyl transferase dUTP nick end labeling (TUNEL) positive cells and Annexin V binding by FACS analysis following treatment with mitochondrial toxins. […]

[4] = system: C57 (PINK1 wildtype) derived hippocampal neurons; experiment: Mitochondrial motility assay in axons; type: cell-based, mouse
Description: (§2) Mitochondrial motility assay: Primary hippocampal neuronal cultures were co-transfected with mitochondrial targeted GFP (mitoGFP) and mCherry-tagged synaptophysin (mCherrySynaptophysin) to allow for the live identification of mitochondria in axons.
(§3) To test if kinetin decreases motility we examined the mobility of axonal mitochondria in hippocampal neurons. Primary hippocampal neuronal cultures were co-transfected with mitoGFP and mCherry-tagged Synaptophysin (mCherrySynaptophysin) to allow for the live identification of mitochondria in axons. […] To test the PINK1 dependency of this process, we treated control mouse C57 (PINK1 wildtype) and PINK1 knockout derived hippocampal neurons with kinetin or 9MK and imaged their mitochondria.

[5] = system: PINK1 knockout derived hippocampal neurons; experiment: Mitochondrial motility assay in axons; type: cell-based, mouse
Description: as §2, §3

[6] = system: SH-SY5Y cells with PINK1-silencing shRNA; experiment: H2O2 induced apoptosis, Annexin V / PI FACS assay, PINK1-silencing shRNA; type: cell-based, human; details: PINK1-silencing shRNA lentivirus; 50 μM 96 hours, 400 μM H2O2
Description: Apoptosis assays and PINK1 shRNA: SH-SY5Y cells (ATCC) were cultured in 1:1 mix of F12K and DMEM supplemented with 20% FBS. PINK1 shRNA lentivirus were produced using a pLKO.1 based shRNA (Sigma) by contransfection with Δ8.9 and pMGD2 vectors in HEK293T cells. SH-SY5Y cells were infected with lentivirus followed by selection with puromycin ([…]). The indicated cells were plated in 6-well plates at about 500,000 cells/well, pretreated with 50 μM of the indicated drug or DMSO for 96 hours followed by 400 μM H2O2 treatment. Subsequently, cells were stained with Annexin V-FITC and PI and analyzed (FACS Diva) on a FACS LSRII Cytometer ([…]) Apoptosis was calculated as the difference between H2O2 treated samples and the respective control.
Overexpression of PINK1 in neuronal cells (e.g. dopaminergic (DA)) promotes survival in response to oxidative stress and other mitochondrial toxins^7. Before testing the effects of kinetin on apoptosis, we treated DA neurons with 50 μM of either kinetin or adenine and measured cell density after 10 days. […] SH-SY5Y cells were treated with 50 μM kinetin, adenine or DMSO for 96 hours, followed by 400 μM H2O2 treatment for additional 24 hours. Using a cytometry-based FACS assay involving cellular annexin V and propidium iodide staining, we determined the percentage of apoptotic cells after treatment with DMSO, adenine or kinetin.

[7] = system: Parkin and Bcl-xL; experiment: Phosphorylation level of Parkin and Bcl-xL in neuronal cell lines; type: cell-based
Description: as §1

SMILES: c1coc(CNc2ncnc3[nH]cnc23)c1 [kinetin]
- TUNEL positive cells in the peri-infarct area ([1]; 24 or 72 hours after infarct): significant decrease in TUNEL positive cells
- scar size and level of collagen deposition ([1]; post-infarct): significant decrease in the scar size and the level of collagen deposition
- Parkin recruitment to CCCP depolarized mitochondria [2]: accelerates
- apoptosis levels [3]: significantly lower levels
- mitochondrial motility [4]: decrease in motility
- mitochondrial motility [5]: no change in motility
- mitochondrial motility ([5]; listed as Kinetin): no effect on mitochondrial motility
- total amount of apoptotic cells [6]: no kinetin effect
- phosphorylation level of Parkin and Bcl-xL [7]: significant increase

— patent publication US11427588B2, “Compositions and methods for treating neurodegenerative diseases and cardiomyopathy” (THE REGENTS OF THE UNIVERSITY OF CALIFORNIA, priority 2013, dated 2022)
